Patent US8969366B2, “Substituted pyrimidinylpyrrolopyridinone derivatives, process for their preparation and their use as kinase inhibitors” (Nerviano Medical Sciences S.R.L., priority 2009, dated 2015)
Counter-ions that a name gives are not always drawn.

Tests used:
Format in all cases: cell-based
[1] = system: human melanoma cells A375 (with a mutated B-RAF); assay: In vitro cell proliferation assay, A375; details: A-375, 72 hours treatment, cell number by ATP monitoring system
Procedure: (§1) In Vitro Cell Proliferation Assay Exponentially growing human melanoma cells A375 (with a mutated B-RAF) and human melanoma cells Mewo (with wild-type B-Raf) were seeded and incubated at 37° C. in a humidified 5% CO2 atmosphere. After 24 hours, scalar doses of the compound were added to the medium and cells oncubated for 72 hours. At the end of treatment, cells were washed and counted. Cell number was determined by a cellular adenosine triphosphate monitoring system. Cell proliferation was compared to control cells and the concentration inhibiting cell growth by 50% was calculated. p-MAPK (T202/Y204) ArrayScan Assay

[2] = system: human melanoma cells Mewo (with wild-type B-Raf); assay: In vitro cell proliferation assay, Mewo; details: 72 hours treatment, cell number by ATP monitoring system
Procedure: as §1

[3] = system: p-MAPK (T202/Y204) in A375 human melanoma cells, having a mutated B-RAF; assay: p-MAPK (T202/Y204) ArrayScan assay; details: A-375, A375 cells treated 1.5 or 2 hours, cytoplasmatic p-MAPK fluorescence intensity, read-out: Array Scan A375 IC50
Procedure: A375 human melanoma cells, having a mutated B-RAF, are seeded in 384-well poly-lysine coated plates (Matrix) at a density of 1000 cells/well with appropriate medium supplemented with 10% FCS and incubated for 16-24 hours. Cells are treated for 1.5 or 2 hours with increasing doses of compounds (starting dose 10 μM, dilution factor 2.5). At the end of the treatment cells are fixed with p-formaldehyde 3.7% for 15-30 min, then washed twice with D-PBS (80 µl/well) and permeabilized with D-PBS containing 0.1% Triton X-100 and 1% BSA (Sigma-Aldrich) for 15 minutes at room temperature (staining solution). Anti-phospho-MAPK (T202/Y204) monoclonal antibody E10 (Cell Signaling, cat. #9106) diluted 1:100 is added in staining solution and incubated for 1 hour at 37° C. After removal of the primary antibody solution, the anti-mouse Cy™2-conjugated (Green) secondary antibody (Amersham) diluted 1:500 in staining solution containing 2 μg/ml DAPI is added. The plate is incubated for 1 hour at 37° C., washed twice and then red with Cellomics' ArrayScan VTI (4 fields/well, CytoNucTrans algorithm).
The parameter “MEAN_RingAvgIntenCh2”, which measures the mean cytoplasmatic fluorescence intensity associated to p-MAPK staining, is reported as the final result.

Row | SMILES | IC50 [1] [nM] | IC50 [2] [nM] | IC50 [3] [nM]
1 | Cn1c(-c2ccnc(NC(=O)c3ccsc3)n2)cc2c1CCNC2=O [compound 12, Thiophene-3-carboxylic acid [4-(1-methyl-4-oxo-4,5,6,7-tetrahydro-1H-pyrrolo-[3,2-c]pyridin-2-yl)-pyrimidin-2-yl]-amide] | 2500 | 6410 | 2380
2 | Cn1c(-c2ccnc(NCc3cccc(Cl)c3)n2)cc2c1CCNC2=O [compound 6, 2-[2-(3-Chloro-benzylamino)-pyrimidin-4-yl]-1-methyl-1,5,6,7-tetrahydro-pyrrolo[3,2-c]pyridin-4-one hydrochloride] | 1760 | 5790 | 2110
3 | Cn1c(-c2ccnc(NCc3cc(Br)cs3)n2)cc2c1CCNC2=O [compound 7, 2-{2-[(4-Bromo-thiophen-2-ylmethyl)-amino]-pyrimidin-4-yl}-1-methyl-1,5,6,7-tetrahydro-pyrrolo[3,2-c]pyridin-4-one hydrochloride] | 2910 | 9760 | 2140
4 | Cn1c2c(c(-c3cccc(NC(=O)Nc4ccc(C(F)(F)F)cc4)c3)c1-c1ccnc(N)n1)C(=O)NCC2 [compound 1, 1-{3-[2-(2-Amino-pyrimidin-4-yl)-1-methyl-4-oxo-4,5,6,7-tetrahydro-1H-pyrrolo-[3,2-c]pyridin-3-yl]-phenyl}-3-(4-trifluoromethyl-phenyl)-urea] | 8220 | > 10000 | 5600
5 | Cn1c(-c2nc(N)ncc2C#Cc2cccc(O)c2)cc2c1CCNC2=O [compound 2, 2-[2-Amino-5-(3-hydroxy-phenylethynyl)-pyrimidin-4-yl]-1-methyl-1,5,6,7-tetrahydro-pyrrolo[3,2-c]pyridin-4-one] | 6090 | 7910 | > 10000
6 | Nc1ncc(C#Cc2cccc(O)c2)c(-c2cc3c(n2CCF)CCNC3=O)n1 [compound 3, 2-[2-Amino-5-(3-hydroxy-phenylethynyl)-pyrimidin-4-yl]-1-(2-fluoro-ethyl)-1,5,6,7-tetrahydro-pyrrolo[3,2-c]pyridin-4-one] | 6460 | 4750 | 710

The next compounds have a lower IC50 [1] than those just listed; values first:

Row | IC50 [1] [nM] | IC50 [2] [nM] | IC50 [3] [nM] | SMILES
7 | 1700 | 2420 | 2910 | Cn1c(-c2ccnc(NC(=O)c3cccs3)n2)cc2c1CCNC2=O [compound 11, Thiophene-2-carboxylic acid [4-(1-methyl-4-oxo-4,5,6,7-tetrahydro-1H-pyrrolo[3,2-c]pyridin-2-yl)-pyrimidin-2-yl]-amide]
8 | 770 | 2640 | 1450 | Cc1csc(C(=O)Nc2nccc(-c3cc4c(n3C)CCNC4=O)n2)c1 [compound 14, 4-Methyl-thiophene-2-carboxylic acid [4-(1-methyl-4-oxo-4,5,6,7-tetrahydro-1H-pyrrolo[3,2-c]pyridin-2-yl)-pyrimidin-2-yl]-amide]
9 | 490 | 2450 | 460 | Cn1c(-c2ccnc(NC(=O)c3cc(Br)cs3)n2)cc2c1CCNC2=O [compound 4, 4-Bromo-thiophene-2-carboxylic acid[4-(1-methyl-4-oxo-4,5,6,7-tetrahydro-1H-pyrrolo[3,2-c]pyridin-2-yl)-pyrimidin-2-yl]-amide]
10 | 450 | 1980 | 1600 | Cn1c(-c2ccnc(NC(=O)c3cccc(Cl)c3)n2)cc2c1CCNC2=O [compound 10, 3-Chloro-N-[4-(1-methyl-4-oxo-4,5,6,7-tetrahydro-1H-pyrrolo[3,2-c]pyridin-2-yl)-pyrimidin-2-yl]-benzamide]
11 | 370 | 1220 | 400 | Cn1c(-c2ccnc(/C=C/c3cccc(Cl)c3)n2)cc2c1CCNC2=O [compound 9, 2-{2-[(E)-2-(3-Chloro-phenyl)-vinyl]-pyrimidin-4-yl}-1-methyl-1,5,6,7-tetrahydro-pyrrolo[3,2-c]pyridin-4-one]
12 | 210 | 820 | 930 | Cn1c(-c2ccnc(C#Cc3cccc(Cl)c3)n2)cc2c1CCNC2=O [compound 8, 2-[2-(3-Chloro-phenylethynyl)-pyrimidin-4-yl]-1-methyl-1,5,6,7-tetrahydro-pyrrolo[3,2-c]pyridin-4-one]
